Assay results from ChEMBL document CHEMBL1201862, “PubChem BioAssay data set” (2004).
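Step 1: Grow cells in 96-well plates. Step 2: Expose to compound for 48 hours at 5 concentrations. Step 3: Interpolate endpoints linearly; if unreached, use highest concentration. GI50 = concentration required for 50% inhibition of growth.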 Active and inactive are the calls of the source. Rule as the data show it: active = GI50 up to about 1.1 µM and inactive = higher.

How the values were obtained:
Experiment in all cases: DTP human tumour cell line panel, 48 h
[1] = system: HCT-116
[2] = system: HCT-15
[3] = system: IGROV-1
[4] = system: K562
[5] = system: KM12
[6] = system: MDA-N
[7] = system: NCI-H460
[8] = system: NCI-H522
[9] = system: NCI/ADR-RES
[10] = system: OVCAR-3
[11] = system: SF-268
[12] = system: SF-295
[13] = system: SN12C
[14] = system: SNB-19
[15] = system: SR
[16] = system: U-251
[17] = system: UO-31
[18] = system: HCC 2998
[19] = system: RPMI-8226

O=[As](O)(O)c1ccc(/N=N/c2ccc([As](=O)(O)O)cc2)cc1
GI50 [1]: > 100 µM (inactive) | GI50 [2]: > 100 µM | GI50 [3]: > 100 µM (inactive) | GI50 [4]: > 100 µM (inactive) | GI50 [5]: > 100 µM (inactive) | GI50 [6]: > 100 µM (inactive) | GI50 [7]: > 100 µM (inactive) | GI50 [8]: > 100 µM (inactive) | GI50 [9]: > 100 µM (inactive) | GI50 [10]: > 100 µM (inactive) | GI50 [11]: > 100 µM (inactive) | GI50 [12]: > 100 µM (inactive) | GI50 [13]: > 100 µM (inactive) | GI50 [14]: > 100 µM (inactive) | GI50 [15]: > 100 µM (inactive) | GI50 [16]: > 100 µM (inactive) | GI50 [17]: > 100 µM (inactive)

COc1cccc(-c2cccc(SC)n2)n1
GI50 [18]: 23.4 µM (inactive) | GI50 [1]: 28.4 µM (inactive) | GI50 [2]: 27 µM | GI50 [3]: 27.2 µM (inactive) | GI50 [4]: 26.2 µM (inactive) | GI50 [5]: 34 µM (inactive) | GI50 [6]: 29.6 µM (inactive) | GI50 [7]: 29 µM (inactive) | GI50 [9]: 28.4 µM (inactive) | GI50 [10]: 20.8 µM (inactive) | GI50 [19]: 23.4 µM (inactive) | GI50 [12]: 34.4 µM (inactive) | GI50 [13]: 36.8 µM (inactive) | GI50 [14]: 40.7 µM (inactive) | GI50 [15]: 18.1 µM (inactive) | GI50 [16]: 36.7 µM (inactive) | GI50 [17]: 30.5 µM (inactive)

O=C(Sc1n[nH]c(=O)[nH]c1=O)c1cccc2nc3ccccc3nc12
GI50 [18]: 27.9 µM (inactive) | GI50 [1]: > 100 µM (inactive) | GI50 [2]: 26.7 µM | GI50 [3]: > 100 µM (inactive) | GI50 [4]: 47.9 µM (inactive) | GI50 [5]: 39 µM (inactive) | GI50 [6]: 11.8 µM (inactive) | GI50 [7]: 8.63 µM (inactive) | GI50 [9]: > 100 µM (inactive) | GI50 [10]: 50 µM (inactive) | GI50 [19]: 78.5 µM (inactive) | GI50 [11]: > 100 µM (inactive) | GI50 [12]: 57 µM (inactive) | GI50 [13]: 34.3 µM (inactive) | GI50 [14]: > 100 µM (inactive) | GI50 [15]: > 100 µM (inactive) | GI50 [16]: > 100 µM (inactive)

CC1(C)NC(C(=O)c2ccccc2)=[N+]([O-])C1(O)c1ccccc1 (stereo not drawn)
GI50 [18]: > 100 µM (inactive) | GI50 [1]: 74.5 µM (inactive) | GI50 [2]: 81.3 µM | GI50 [3]: > 100 µM (inactive) | GI50 [4]: > 100 µM (inactive) | GI50 [5]: > 100 µM (inactive) | GI50 [6]: > 100 µM (inactive) | GI50 [7]: > 100 µM (inactive) | GI50 [9]: > 100 µM (inactive) | GI50 [10]: 95.3 µM (inactive) | GI50 [19]: > 100 µM (inactive) | GI50 [11]: > 100 µM (inactive) | GI50 [12]: > 100 µM (inactive) | GI50 [13]: > 100 µM (inactive) | GI50 [14]: > 100 µM (inactive) | GI50 [15]: > 100 µM (inactive) | GI50 [16]: > 100 µM (inactive) | GI50 [17]: 69.8 µM (inactive)

Cc1ccc(-c2cnc(NC3OC(COC(=O)c4ccccc4)C(OC(=O)c4ccccc4)C(OC(=O)c4ccccc4)C3OC(=O)c3ccccc3)s2)cc1 (stereo not drawn)
GI50 [1]: > 100 µM (inactive) | GI50 [2]: > 100 µM | GI50 [3]: > 100 µM (inactive) | GI50 [6]: > 100 µM (inactive) | GI50 [7]: > 100 µM (inactive) | GI50 [8]: > 100 µM (inactive) | GI50 [9]: > 100 µM (inactive) | GI50 [10]: > 100 µM (inactive) | GI50 [19]: > 100 µM (inactive) | GI50 [11]: > 100 µM (inactive) | GI50 [12]: > 100 µM (inactive) | GI50 [13]: > 100 µM (inactive) | GI50 [14]: > 100 µM (inactive) | GI50 [15]: > 100 µM (inactive) | GI50 [16]: > 100 µM (inactive) | GI50 [17]: > 100 µM (inactive)

C=CCOC1OC(CO[Si](C)(C)C(C)(C)C)C(OCc2ccccc2)C(OCc2ccccc2)C1OCc1ccccc1 (stereo not drawn)
GI50 [1]: 23 µM (inactive) | GI50 [2]: 88.3 µM | GI50 [3]: 90.2 µM (inactive) | GI50 [4]: > 100 µM (inactive) | GI50 [5]: > 100 µM (inactive) | GI50 [6]: > 100 µM (inactive) | GI50 [7]: 42 µM (inactive) | GI50 [8]: 34 µM (inactive) | GI50 [9]: 36.6 µM (inactive) | GI50 [10]: 37.2 µM (inactive) | GI50 [19]: > 100 µM (inactive) | GI50 [11]: 40.5 µM (inactive) | GI50 [12]: 22.1 µM (inactive) | GI50 [13]: 71.8 µM (inactive) | GI50 [14]: 26.2 µM (inactive) | GI50 [15]: > 100 µM (inactive) | GI50 [16]: 29.2 µM (inactive) | GI50 [17]: 46.1 µM (inactive)

CC(C)(C)OCC1NC(=O)[C@@H]2Cc3c([nH]c4ccccc34)C(C3CCCCC3)N2C1=O (stereo partly drawn)
GI50 [1]: 15.3 µM (inactive) | GI50 [2]: 24 µM | GI50 [3]: 23.2 µM (inactive) | GI50 [4]: 27.3 µM (inactive) | GI50 [5]: 17.8 µM (inactive) | GI50 [6]: 16.7 µM (inactive) | GI50 [8]: 16.5 µM (inactive) | GI50 [9]: 21.1 µM (inactive) | GI50 [10]: 11.6 µM (inactive) | GI50 [19]: 19.8 µM (inactive) | GI50 [11]: 28.8 µM (inactive) | GI50 [12]: 18.2 µM (inactive) | GI50 [13]: 19.6 µM (inactive) | GI50 [14]: 37.3 µM (inactive) | GI50 [15]: 16.2 µM (inactive) | GI50 [16]: 20.4 µM (inactive) | GI50 [17]: 32.9 µM (inactive)

COc1ccc(C2NC(=S)Nc3c2c(=O)oc2c3ccc3ccccc32)cc1 (stereo not drawn)
GI50 [1]: 78.2 µM (inactive) | GI50 [2]: 53.7 µM | GI50 [3]: > 100 µM (inactive) | GI50 [4]: 56.9 µM (inactive) | GI50 [5]: 58.3 µM (inactive) | GI50 [6]: 76.9 µM (inactive) | GI50 [7]: 96.6 µM (inactive) | GI50 [8]: > 100 µM (inactive) | GI50 [9]: 81.5 µM (inactive) | GI50 [10]: > 100 µM (inactive) | GI50 [19]: 47.6 µM (inactive) | GI50 [11]: > 100 µM (inactive) | GI50 [12]: 59.3 µM (inactive) | GI50 [13]: 88.5 µM (inactive) | GI50 [14]: 35.7 µM (inactive) | GI50 [15]: 48.4 µM (inactive) | GI50 [16]: 40.6 µM (inactive) | GI50 [17]: 77.1 µM (inactive)
